Where two headings read alike, the source gives them in different places.
Columns and labels:
LQT syndrome hiPSC-CMs = assay: Ca2+ imaging of calcium transients, LQT syndrome hiPSC-CMs; assay type: cell-based, human; settings: cardiomyocytes of LQTS, 5 μM
Method: Dissociated day 30–33 post-differentiation hiPSC-CMs (healthy and LQT specific patient) were reseeded Matrigel-coated plate in HELP4004 (HELP) and were treated with 5 μM Fluo-3 AM and 0.02% Pluronic (Life Technologies) in DMEM/F12 (Gibco) for 60 min at 37 °C. Cells were washed with DMEM/F12 without fluorochrome solution afterwards for 30 min, replaced the solution with Tyrode’s solution. Ca^2+ imaging was conducted using Olympus IX71 confocal microscope (Olympus IX71, Tokyo, Japan) and analyzed using Olympus imaging software. Ca^2+ spontaneous transients were obtained using a single cell line scan mode at 37 °C.
Isoproterenol, nifedipine, and AC were purchased from Sigma-Aldrich, which were resolved in DMSO (Sigma-Aldrich, D2650). Drug compounds final concentration were AC (0.05, 0.5,5 μM), nifedipine (1 μM), isoproterenol (3 μM), respectively. Dilutions were prepared within 60 min of treatment. All the compound solutions were subjected to regular 10 min ultrasound and oscillations to ensure that compounds were completely dissolved. Equal amounts of DMSO (0.1%) were used as the vehicle controls.

[1] = Pharmacokinetic study of six aconitum alkaloids in rat plasma after oral Fu Zi extracts (UPLC-MS/MS); assay type: in vivo, Sprague Dawley rats; settings: both sexes, Sprague Dawley, in vivo, SD rat plasma, mean ± SD, n = 8; for AUC(0-t): read-out: AUC(0–48h); for CL/F: read-out: CLz/F (converted); for Vd/F: read-out: Vz/F; for half-life: read-out: t1/2z (converted)
Method: Fu Zi (200 g) was taken and broken by a pulverizer to the size of 0.5–1.0 cm. The broken Fu Zi was soaked in 1.6 L distilled water and boiled for 0.5 h. The filtrate was collected and the previous step was repeated for the filtered residue. The mixed filtrates were precipitated with 60% ethanol, and then centrifuged (2000× g, 10 min). The supernatant was decompressed and concentrated to a final density of 2.0 g/mL by the amount of the crude drugs. The final concentration of ethanol in Fu Zi extracts before administration was below 0.5%. The extract was subsequently kept at −20 °C for oral administration to rats.
All samples were analyzed on UPLC® I-Class and Xevo® TQS mass spectrometry combined system. Separations by a Waters ACQUITY UPLC® HSS T3(2.1 mm × 100 mm, 1.8 μm) column were conducted with a mobile phase of water (A) and acetonitrile (B), both containing 0.1% formic acid, at the flow rate of 0.3 mL·min^−1.The run time was 5.0 min and the gradient elution program was adopted as follows: 0–0.3 min, 10% B; 0.3–1 min, 10–50% B; 1–2.5 min, 50–90% B; 2.5–3 min, 90% B; 3–5 min, 10% B. The temperature of the column and samples were set at 45 °C and 10 °C, respectively. The volume of injection was 2 μL.
The detection was quantified by a triple quadrupole mass spectrometer that was set as multiple reactive monitoring (MRM) in the electrospray positive ionization mode (ESI+). The correlative parameters were as follows: capillary voltage: 3 kV; desolvation gas flow: 800 L·h^−1; cone gas flow: 150 L·h^−1; source temperature: 150 °C; desolvation temperature: 500 °C.
The method of […] was utilized. An amount of 100 μL of plasma samples from rats after oral administration of Fu Zi extracts was precipitated with 300 μL of 50% acetonitrile plus 50% methanol, vortexed for 1.0 min and centrifuged at a speed of 12,000× g at 4 °C for 10 min. The supernatant was transferred to another 1.5 mL centrifuge tube, dried with a stream of nitrogen at 40 °C, redissolved in 50 μL methanol and centrifuged at 12,000× g for 10 min. Then, the supernatant was pipetted out into the autosampler vials and analyzed by UPLC-MS/MS system.
24 Sprague Dawley rats (half male and female, weight 180–220 g) were purchased from Beijing Weitong Lihua Biotechnology Co.Ltd. (Beijing, China). The license number of experimental animal production was SCXK (Jing) 2016–0006. The animals were maintained under a standard laboratory condition (humidity: 40–70%, room temperature: 20–26 °C, […], 12 h dark-light cycle) and fed separately. All animal experiments were conducted according to the Guide for the Care and Use of Laboratory Animals (National Research Council of the USA, 1996) and approved by the Institutional Animal Care and Use Committee (IACUC-DWZX-2020-776). After 5 days of acclimation, the rats were fasted for 12 h but provided with water freely before the experiments. The rats were randomly divided into 3 groups: high (2.0 g/kg), middle (1.0 g/kg), and low (0.5 g/kg) dose groups. The Fu Zi extracts was administered to each rat intragastrically. An equivalent of 0.20 mL blood samples were collected from the fossa orbitalis vein into 1.5 mL heparinized centrifuge tubes at the designated time points after dosing: 0.08, 0.25, 0.5, 1, 2, 4, 8, 12, 24, and 48 h. The plasma samples were pipetted out into another 1.5 mL centrifuge tubes after being centrifuged at 5000× g for 10 min and then stored at −20 °C until further analysis.
The data were acquired by […] from Waters (UNIFI). Microsoft Office Excel and the SPSS software (Version 13.0) was used for data analysis. The data below the LLOQ were regarded as zero in summary statistics. The pharmacokinetic parameters were calculated by DAS pharmacokinetic program (Version 2.0) and all analyzed by non-compartmental method. […] All data were presented as mean ± SD. […]

SMILES: CCN1C[C@]2(COC)[C@H](O)C[C@H](OC)[C@@]34[C@@H]5C[C@@]6(O)[C@H](OC(=O)c7ccccc7)[C@@H]5[C@@](OC(C)=O)([C@@H]([C@H](OC)[C@H]23)[C@@H]14)[C@@H](O)[C@@H]6OC [AC, aconitine]
- frequency of calcium transient (LQT syndrome hiPSC-CMs): significantly increase
- Cmax ([1]; oral Fu Zi extracts 0.5 g/kg): 1.28 ± 0.34 ng/mL
- Tmax ([1]; oral Fu Zi extracts 0.5 g/kg): 4.38 ± 3.11 h
- AUC(0-t) ([1]; oral Fu Zi extracts 0.5 g/kg): 13.5 ± 3.28 ng·h/mL
- CL/F ([1]; oral Fu Zi extracts 0.5 g/kg): 77 mL/min/kg
- Vd/F ([1]; oral Fu Zi extracts 0.5 g/kg): 14 ± 4.33 L/kg
- half-life ([1]; oral Fu Zi extracts 0.5 g/kg): 114 ± 18.6 min
- Cmax ([1]; oral Fu Zi extracts 1.0 g/kg): 1.69 ± 0.33 ng/mL
- Tmax ([1]; oral Fu Zi extracts 1.0 g/kg): 3.13 ± 1.25 h
- AUC(0-t) ([1]; oral Fu Zi extracts 1.0 g/kg): 17.1 ± 4.68 ng·h/mL
- CL/F ([1]; oral Fu Zi extracts 1.0 g/kg): 106 mL/min/kg
- Vd/F ([1]; oral Fu Zi extracts 1.0 g/kg): 70 ± 33.4 L/kg
- half-life ([1]; oral Fu Zi extracts 1.0 g/kg): 452 ± 164 min
- Cmax ([1]; oral Fu Zi extracts 2.0 g/kg): 2.27 ± 0.7 ng/mL
- Tmax ([1]; oral Fu Zi extracts 2.0 g/kg): 1.03 ± 0.84 h
- AUC(0-t) ([1]; oral Fu Zi extracts 2.0 g/kg): 23.8 ± 7.77 ng·h/mL
- CL/F ([1]; oral Fu Zi extracts 2.0 g/kg): 148 mL/min/kg
- Vd/F ([1]; oral Fu Zi extracts 2.0 g/kg): 167 ± 80.1 L/kg
- half-life ([1]; oral Fu Zi extracts 2.0 g/kg): 688 ± 258 min
